Measured values published in US11529397B2, “Method of treating mucopolysaccharidosis type IVA” (Saint Louis University, priority 2018, dated 2022).

Columns and labels:
splenocytes [1] = test: Splenocyte proliferation after in vitro stimulation with peptides or GALNS (Examples 2, 4); format: cell-based, mouse; details: for proliferation of splenocytes relative to age of the animal and length of treatment: MKC mice, weeks of infusion; for splenocyte proliferation response: splenocytes of MKC mice treated by ERT with GALNS, in vitro peptide stimulation
Protocol: (§1) Mice (MKC) genetically engineered not to express GALNS were used in these examples. […] 200 μl of the emulsion were administered as a subcutaneous injection. […] Control mice (n=2) were immunized with PBS emulsified in CFA and IFA respectively (Chung et al. (2005) J. Leukoc Biol. 77(6):906-13)). […] A control group (n=5) received PBS (Tomatsu et al. (2008) Hum Mol Genet. 15; 17(6):815-24). […]
Ten days after the last immunization or the last infusion, the mice were euthanized and the spleen was aseptically removed. […] The suspension was centrifuged at 1000 rpm […]. The red blood cells were lysed using a hypotonic lysis buffer (Sigma® R7757). […] Cells were pulsed with 1 JpCi of [3H]thymidine for the last 18 h of incubation. [3H]thymidine incorporation was measured by […] (Trilux Microbeta Counter). The Stimulation Index (SI) was calculated as the mean value of the three wells for each condition divided by the mean value of the unstimulated cells (Mirano-Bascos (2010) J Virol. 84(7):3303-11).

splenocytes [2] = test: Cytokine production by splenocytes after in vitro stimulation (Example 3); format: cell-based, mouse; details: splenocytes of MKC mice treated by ERT with GALNS; culture supernatant
Protocol: as §1
The production of cytokines after peptide stimulation was evaluated as intracellular staining (by flow cytometry) and secreted cytokines (by LUMINEX). […] The cells were treated with 1 μl of a protein transport inhibitor BD GolgiPlug™ during 5 h at 37° C., saturated humidity and 5% CO2. The suspension of cells was centrifuged at 1000 rpm during 10 minutes. The supernatants were collected by further analysis with LUMINEX. The Fc receptors were blocked with 1 μl of α-mouse CD16/32 (e-Bioscience) during 15 min at 4° C. After washing, the cells were stained with PE-Cy7-labeled anti-mouse CD4 and Alexa700-labeled anti-mouse CD8 antibodies during 30 min at 4° C. After two washes, cells were permeabilized with a BD fixation/permeabilization solution during 20 min at 4° C. Cells were washed two times and stained with a cocktail of antibodies for intracellular staining (PE-labeled anti-mouse IL-4, APC-labeled anti-mouse IL-5 and FITC-labeled anti-mouse IFN-γ). After two washes, cells were analyzed by flow cytometry. Secreted cytokines (IL-4, IL-5, IL-13, IL-17 and IFN-γ) in the collected supernatants were detected by using a bead immunoassay kit which allows the measurement of multiple proteins simultaneously (LUMINEX technology, using a Millipore Milliplex™ kit).

splenocytes [3] = test: Screening of peptides by splenocytes proliferation, retest in MKC mice (Examples 5-6); format: cell-based, mouse; details: MKC mice, 16, 22 and 24 infusions; with higher number of infusions
Protocol: of body weight through the tail vein. A control group received PBS. […] The suspension was centrifuged at 1,000 rpm during 10 minutes. […] The specificity of cellular response against the peptides or the complete enzyme in the in vitro stimulation was determined by splenocyte proliferation or cytokine secretion in ERT treated mice or PBS injected control mice. […] 3H-Thymidine incorporation was measured by β-Scintillation counter (Trilux Microbeta Counter). Proliferation data are expressed as counts per minute (cpm) values (FIG. 5). (Mirano-Bascos et al. (2010) J Virol. 84(7): p. 3303-11).

splenocytes [4] = test: Secreted cytokine profile of splenocytes, retest in MKC mice (Example 7); format: cell-based, mouse; details: for IL-5 secretion, ERT treated vs PBS controls, p or significance / IL-13 secretion, ERT treated vs PBS controls, p or significance / profile of secreted cytokines, ERT treated vs PBS treated mice: MKC mice; for profile of secreted cytokines, ERT treated vs PBS treated mice: 16 i.v. infusions
Protocol: The predicted peptides from Example 1 were reevaluated in MKC mice to reaffirm the selection of peptides 4, 8, and 10. […] A control group received PBS. […] The suspension was centrifuged at 1,000 rpm during 10 minutes. […] The specificity of cellular response against the peptides or the complete enzyme in the in vitro stimulation was determined by splenocyte proliferation or cytokine secretion in ERT treated mice or PBS injected control mice.
(§2) Cytokines were determined in the cell culture supernatants. […] Cells were centrifuged at 1,000 rpm during 10 min. Secreted cytokines (IL-4, IL-5, IL-13, and IFN-γ) in the collected supernatants were detected by a bead immunoassay kit which allow the measurement of multiple proteins simultaneously (LUMINEX xMAP Technology, using a Millipore Milliplex™ kit) according to manufacturer's instructions (FIG. 5).

splenocytes [5] = test: Splenocytes proliferation in Morquio A mouse models and WT mice treated by ERT (Example 9); format: cell-based
Protocol: (§3) Morquio A mouse models: a). […] 14(22): p. 3321-35).c). Missense mutation mice (Galnstm (C76S) SLU C2) (Tomatsu et al. (2007) Mol Genet Metab., 91(3): p. 251-8), and wild-type C57BL6 mice were treated by ERT. […] A control group received PBS.
(§4) The suspension was centrifuged at 1,000 rpm during 10 minutes.
Thymidine incorporation was measured by β-Scintillation counter (Trilux Microbeta Counter) Mirano-Bascos, et al. (2010) J Virol. 84(7): p. 3303-11).

splenocytes [6] = test: Secreted cytokines of splenocytes in Morquio A mouse models and WT mice treated by ERT (Examples 10-13); format: cell-based; details: for IL-4 secretion / IL-5 secretion: MTol mice
Protocol: as §3, §4
as §2, with “1000” for “1,000”, “instructions.” for “instructions (FIG. 5).”

Sequence	proliferation of splenocytes relative to age of the animal and length of treatment (splenocytes [1])	splenocyte proliferation response (splenocytes [1])	secretion of cytokines IL-5 and IFN-γ (splenocytes [2])	relationship between number of weekly i.v. infusions and cpm values of splenocytes proliferation (splenocytes [3])	IL-5 secretion, ERT treated vs PBS controls, p or significance (splenocytes [4])	IL-13 secretion, ERT treated vs PBS controls, p or significance (splenocytes [4])	profile of secreted cytokines, ERT treated vs PBS treated mice (splenocytes [4])	splenocytes proliferation, ERT treated vs PBS controls (splenocytes [5]; C2 mice)	splenocytes proliferation, ERT treated vs PBS controls (splenocytes [5]; MKC mice)	splenocytes proliferation, ERT treated vs PBS controls (splenocytes [5]; WT mice)	IFN-γ secretion, MKC vs MTol mice treated by ERT, p or significance (splenocytes [6])	IL-4 secretion (splenocytes [6])	IL-5 secretion (splenocytes [6])	IFN-γ secretion, ERT treated vs PBS controls of the same strain (splenocytes [6]; all mice (MKC, C2, WT, MTol))	IL-5 secretion, ERT treated vs PBS controls (splenocytes [6]; any of the mice models)	levels of secreted IFN-γ among the peptides and GALNS (splenocytes [4]; MKC mice treated by ERT)	IFN-γ secretion compared with the other stimuli (splenocytes [6]; mice treated by ERT)
FFLYWAVDATHAPVYASKPF (listed as Homo sapiens) [Peptide E8]	highest response at 16 weeks	strong response	strong response	lower levels of proliferation	did not induce a significant IL-5 response	not statistically significant	statistically significant difference	statistically significant difference	statistically significant	statistically significant difference	not statistically significant	did not present secretion of IL-4	did not present secretion of IL-5	statistically significant levels	did not induce IL-5 secretion	–	–
PNCHFGPYDNKARPNIPVYR (listed as Homo sapiens) [Peptide C4]	highest response at 16 weeks	strong response	strong response	lower levels of proliferation	0.028	not statistically significant	statistically significant difference	statistically significant difference	statistically significant	statistically significant difference	–	did not present secretion of IL-4	did not present secretion of IL-5	–	–	highest levels	strongest response
